Assay results from patent US7744889B2, “Alpha, beta-unsaturated sulfoxides for treating proliferative disorders” (Temple University - Of The Commonwealth System of Higher …, priority 2003, dated 2010).

Assays:
DU145, BT20, H157, DLD1 = experiment: Effect on tumor cell lines, viability by Trypan blue exclusion after 96 hours; type: cell-based; conditions: concentration required for 50% growth inhibition vs vehicle (DMSO) treated cells, doses 10 nM to 5 μM, one class for the four cell lines
Protocol: The effect of the α,β-unsaturated sulfoxides according to Formula I on tumor cells of prostate, colon, lung and breast origin was examined by utilizing the following cell lines: prostate tumor cell line DU-145; colorectal carcinoma cell line DLD-1; non-small cell lung carcinoma cell line H157; and breast tumor cell line BT-20. BT-20 is an estrogen-unresponsive cell line. BT-20, DLD-1 and H157 were grown in Dulbecco's modified Eagle's medium (DMEM) containing 10% fetal bovine serum supplemented with penicillin and streptomycin. DU145 was cultured in RPMI with 10% fetal bovine serum containing penicillin and streptomycin. NIH/3T3 (normal murine fibroblasts) and HFL-1cells (normal diploid human lung fibroblasts) were grown in DMEM containing 10% calf serum supplemented with penicillin and streptomycin.
Cells were plated at density levels of 1.0×10^5 cells per well in six-well plates. Cell cultures were maintained at 37° C. in a humidified atmosphere of 5% CO2.
Cells were treated with compounds of the invention at doses ranging from 10 nM to 5 μM concentration, and cell viability was determined after 96 hours by the Trypan blue exclusion method.
Values are reported as the GI50, i.e., the concentration (μM) required for 50% growth inhibition as compared to vehicle (DMSO) treated cells. The values reported in Table 7 are: ***=10-100 nM; **=100 nM-1μM; and *=>1μM.
Cells were treated with the test compound at concentrations in the range from 10 nM to 5 μM, and cell viability was determined after 96 hours by the Trypan blue exclusion method.

Compound | melting point [°C] | GI50 (DU145, BT20, H157, DLD1) [nM]
COc1cc(OC)c(/C=C/[S+]([O-])Cc2ccc(OC)c([N+](=O)[O-])c2)c(OC)c1 (stereo not drawn) [Example 30] | 140 to 146 | > 1000
COc1ccc(C[S+]([O-])/C=C/c2c(OC)cc(OC)cc2OC)cc1 (stereo not drawn) [Example 29] | 92 to 94 | 100 to 1000

Other lines, results leading:

melting point [°C] | GI50 (DU145, BT20, H157, DLD1) [nM] | Compound
270 to 274 |  | O=C(O)c1ccc(/C=C/[S+]([O-])Cc2ccc(Cl)cc2)cc1 (stereo not drawn) [Example 32]
112 to 115 | 10 to 100 | COc1cc(OC)c(/C=C/[S+]([O-])Cc2ccc(OC)c(O)c2)c(OC)c1 (stereo not drawn) [Example 31]
136 to 140 | 10 to 100 | COc1cc(OC)c(/C=C/[S+]([O-])Cc2ccc(OC)c(N)c2)c(OC)c1 (stereo not drawn) [Example 33, (E)-2,4,6-trimethoxystyryl-4-methoxy-3-aminobenzylsulfoxide]
